# Patent publication US20230416751A1, “MATERIALS AND METHODS FOR TREATING CORNEAL DYSFUNCTION” (UNIVERSITY OF MIAMI, priority 2020, published 2023)
# Experiments:
# caspase-1 [1] = assay: Caspase-1 ELISA in human corneal endothelial grafts exposed to TNF-α and IFN-γ; assay type: cell-based; settings: Ac-YVAD-cmk 30 ng/ml, TNF-α 100 ng/ml + IFN-γ 100 ng/ml, 48 hours; vs exposed and control non-exposed grafts, p<0.0001
# Procedure: (§1) Endothelial grafts were isolated from corneal tissue grafts stored in Optisol GS (Bausch & Lomb; Rochester, New York, USA) and transferred to 24-well plates in DMEM/F12 medium (Gibco, Invitrogen Thermo Fisher, Carlsbad, CA, USA) supplemented with 5% fetal bovine serum (Gibco, Invitrogen Thermo Fisher, Carlsbad, CA, USA) and incubated at 37° C. for 48 hours to stabilize the cells following hypothermic storage. Medium was replaced and endothelial grafts were treated with TNF-α (100 ng/ml, R&D Systems, Minneapolis, MN, USA) and IFN-γ (100 ng/ml, Systems, Minneapolis, MN, USA)^34 and were incubated at 37° C. for 48 hours. Caspase-1 inhibitor, Ac-YVAD-cmk (30 ng/ml, InvivoGen, San Diego, CA, USA) was used to inhibit the inflammasome in CEC.
# (§2) To study the expression of inflammasome signaling proteins in endothelial grafts, cells were treated with TNF-α and IFN-γ for 48 hours. Treated endothelial grafts were placed on […] of lysis buffer with protease inhibitor cocktail (Sigma) and Caspase-1 and […] levels were measure by SimpleStep ELISA™ kit (Abcam; Cambridge, UK) according to the manufacturer's instructions. Caspase-1 and IL-1β protein levels were determined by measuring the fluorescence intensity using a microplate reader (SpectraMax iD3, Molecular Device, San Jose, CA, USA) with excitation and emission wavelengths set at 485 and 535 nm, respectively. […]
# IL-1β = IL-1β ELISA in human corneal endothelial grafts exposed to TNF-α and IFN-γ; assay type: cell-based; settings: Ac-YVAD-cmk 30 ng/ml, TNF-α 100 ng/ml + IFN-γ 100 ng/ml, 48 hours; vs exposed grafts
# Procedure: as §1, §2
# caspase-1 [2] = assay: Caspase-1 immunofluorescence in corneal endothelial grafts exposed to TNF-α and IFN-γ; assay type: cell-based, human; settings: Ac-YVAD-cmk 30 ng/ml, TNF-α 100 ng/ml + IFN-γ 100 ng/ml, 48 hours
# Procedure: as §1
# (§3) Endothelial grafts were fixed with 4% paraformaldehyde for 10 minutes at room temperature and washed with PBS. For immunofluorescence staining, samples were permeabilized with 0.3% Triton X-100 in PBS for 15 minutes and blocked with Image-iT FX signal enhancer (Invitrogen ThermoFisher Scientific; Carlsbad, CA, USA) for 30 minutes at room temperature. Isotype-matched nonspecific IgG antibodies were used as controls. […] Stained samples were examined using an inverted fluorescence microscope (BZ-X800 Analyzer, KEYENCE, Osaka, Japan). Images were analyzed using BZ-X-Analyzer software (KEYENCE, Osaka, Japan).
# GSDM-D = GSDM-D immunofluorescence in corneal endothelial grafts exposed to TNF-α and IFN-γ; assay type: cell-based, human; settings: Ac-YVAD-cmk, TNF-α 100 ng/ml + IFN-γ 100 ng/ml, 48 hours
# Procedure: as §1, §3
# human CEC [3] = assay: Lactate dehydrogenase (LDH) release assay in corneal endothelial grafts exposed to TNF-α and IFN-γ; assay type: cell-based; settings: supernatant of grafts exposed to TNF-α and IFN-γ, Ac-YVAD-cmk 30 ng/ml, 48 hours; p<0.05
# Procedure: as §1
# Cytotoxicity of CEC after TNF-α, IFN-γ treatment was assessed by LDH release assay. LDH release assay was measure using a CytoTox 96® Non-Radioactive Cytotoxicity Assay kit (Promega, Madison, WI, USA) performed according to the manufacturer's instructions as described in^35. The absorbance was measured using a microplate reader (SpectraMax iD3, Molecular Device, San Jose, CA, USA) with excitation and emission wavelengths set at 490 nm.
# human CEC [4] = assay: Intracellular ROS detection (DCF-DA) in corneal endothelial grafts exposed to TNF-α and IFN-γ; assay type: cell-based; settings: Ac-YVAD-cmk 30 ng/ml, 48 hours, p<0.001
# Procedure: as §1
# Measurement of intracellular ROS levels was performed using a 2,7-dichlorofluorescein diacetate (DCF-DA) Cellular Reactive Oxygen Species Detection Assay Kit (Abcam, Cambridge, UK) according to the manufacturer's instructions as described in^36. Endothelial grafts were incubated with 10 μM DCF-DA at 37° C. for 45 min. Then, ROS level was determined by measuring the fluorescence intensity using a microplate reader (SpectraMax iD3, Molecular Device, San Jose, CA, USA) with excitation and emission wavelengths set at 485 and 535 nm, respectively. Tert-butyl hydrogen peroxide (TBHP) was used as the positive control. […]
# caspase-1 [5] = assay: siRNA inflammasome inhibitor in vitro assay: caspase-1 SimpleStep ELISA in HCEC-B4G12 cells; assay type: cell-based, human; settings: HCEC-B4G12, YVAD 30 ng/ml, TNFα and INFγ, 72 hours; vs positive control cells treated only with TNFα and INFγ
# Procedure: HCEC-B4G12 (Human Corneal Endothelial Cell Line) cells were obtained from Leibniz Institute DSMZ and maintained in Endothelial SFM supplemented with FGF 10 ng/ml in a humidified incubator under an atmosphere of 5% CO2/95% air at 37° C. For transfection, cells were seeded in 12 well culture plates until cultures reached 95-100% confluence. The cells were then transfected with 1 μM ASC siRNAs using siPORT NeoFX Transfection Agent (Invitrogen) following the manufacturer protocol.
# Transfection efficiency was estimated by assessing the amount of Block-it Alexa Fluor green fluorescent oligonucleotide (Invitrogen) present inside cells in control cultures 24 and 72 hours after transfection. […] Following the 72 hours treated endothelial cells were placed on 150 μL of lysis buffer with protease inhibitor cocktail (Sigma), and caspase-1 levels were measured by SimpleStep ELISA™ kit (Abcam; Cambridge, UK) according to the manufacturer's instructions. Caspase-1 protein levels were determined by measuring the fluorescence intensity using a microplate reader (SpectraMax iD3, Molecular Device, San Jose, CA, USA) with excitation and emission wavelengths set at 485 and 535 nm, respectively. […]
# Caspase-1 levels were analyzed by SimpleStep ELISA after 72 hours of treatment with either YVAD (30 ng/ml) or ASC siRNA (1 μM) transfection, both sets of cells underwent inflammation induction with TNFα and INFγ. […]
substance,measurement,setting,value
Ac-YVAD-cmk,caspase-1 levels (ELISA),caspase-1 [1],significantly lower levels of caspase-1
same,IL-1β levels (ELISA),IL-1β,did not show significantly lower levels of IL-1β
same,caspase-1 expression (immunofluorescence),caspase-1 [2],lower expression of caspase-1
same,intracellular (cytoplasmic) immunoreactivity of GSDM-D,GSDM-D,inhibited
same,"LDH levels (LDH release, cell death)",human CEC [3],significantly downregulated
same,ROS levels,human CEC [4],significantly downregulated
same,decrease of caspase-1 levels,caspase-1 [5],about 41%
